Here are results for five compounds from patent US20240199585A1, “SOLID FORMS OF (3R)-N-[2-CYANO-4-FLUORO-3-(3-METHYL-4-OXO-QUINAZOLIN-6-YL)OXY-PHENYL]-3-FLUORO-PYRROLIDINE-1-SULFONAMIDE” (Hoffmann-La Roche Inc., priority 2021, published 2024).

The conditions of data set [1]: cited from earlier work.
The nature of data set [2]: Moisture sorption/desorption (dynamic vapour sorption, DVS). In kind it is physicochemical. As to conditions: for Masschange (DVS): from 0%-90% RH; for Hygroscopicity: increase in mass from 0%-RH to 90%-RH. The procedure:
Moisture sorption/desorption data was collected on a DVS Advantage, a DVS Adventure, or a DVS Intrinsic (SMS Surface Measurements Systems) moisture balance system. The sorption/desorption isotherms were measured stepwise in a range from 0%-RH to 90%-RH at typically 25° C. A weight change of typically <0.001%/min was chosen as criterion to switch to the next level of relative humidity (with a maximum equilibration time of typically 24 hours, if the weight change criterion was not met). The data were corrected for the initial moisture content of the samples by taking the weight after drying of the samples at 0%-RH as zero point.
The hygroscopicity of a given substance was characterized (by close analogy with the European Pharmacopoeia) by the increase in mass when the relative humidity was raised from 0%-RH to 90%-RH: […]

Data set [3] can be described thus: High humidity storage experiments. Type of data set: physicochemical.

Each structure is given as a SMILES string.

For the compound `CC(C)(C)c1nc(-c2cccc(NS(=O)(=O)c3c(F)cccc3F)c2F)c(-c2ccnc(N)n2)s1` [Dabrafenib], the brain permeability entry in data set [1] was “very poor”. In the case of `COC(=O)N[C@@H](C)CNc1nccc(-c2cn(C(C)C)nc2-c2cc(Cl)cc(NS(C)(=O)=O)c2F)n1` [Encorafenib], the brain permeability entry in data set [1] is reported as “very poor”. As to `CCCS(=O)(=O)Nc1ccc(F)c(C(=O)c2c[nH]c3ncc(-c4ccc(Cl)cc4)cc23)c1F` [Vemurafenib], in data set [1], the brain permeability result is reported as “very poor”. Take `Cn1cnc2ccc(Oc3c(F)ccc(NS(=O)(=O)N4CC[C@@H](F)C4)c3C#N)cc2c1=O` [amorphous form, (3R)-N-[2-cyano-4-fluoro-3-(3-methyl-4-oxo-quinazolin-6-yl)oxy-phenyl]-3-fluoro-pyrrolidine-1-sulfonamide]: in data set [2], the “Masschange (DVS)” value was about 3.8% and the Hygroscopicity result is reported as “hygroscopic (weight increase 2.0% ≤ Dm < 15.0%)”. For the same compound, in data set [3], the “Solid form stability in high humidity storage” value is given as “Recrystallization to Form A”. Consider `Cn1cnc2ccc(Oc3c(F)ccc(NS(=O)(=O)N4CC[C@@H](F)C4)c3C#N)cc2c1=O` [polymorphic form A, (3R)-N-[2-cyano-4-fluoro-3-(3-methyl-4-oxo-quinazolin-6-yl)oxy-phenyl]-3-fluoro-pyrrolidine-1-sulfonamide], for which, in data set [2], the “Masschange (DVS)” value is under 0.2% and the Hygroscopicity entry is “not hygroscopic”. Moreover, the “Solid form change during the DVS cycle” value in data set [2] (sorption/desorption cycle 0%-90% RH) is recorded as “no solid form change”.
